Laboratory results: patent publication US7425548B2, “Materials and methods for immune system stimulation” (Variety Chidren's Hospital, priority 2004, dated 2008)

Assays:
[1] = test system: C3a des Arg (alternative pathway); assay: Complement activation pathway EIA in normal blood; parameters: species or system human; settings: RR1 0-100 μg/ml, 24 hours
Protocol: Normal blood samples from healthy volunteers were incubated with RR1 (0-100 μg) for 24 hours. Human complement C3a des Arg and C4a des Arg correlate EIA Kits (Assay Design Inc., Ann Arbor, Mich.) were used for quantification of classic and alternative pathway of complement activation using an ELISA procedure. ***p<0.001.
Complement activation pathway. Human complement C3a des Arg and C4a des Arg correlate-EIA Kits (ASSAY DESIGN Inc., Ann Arbor, Mich.) were used to measure the cleaved complement components (C3a des Arg and C4a des Arg) according to the manufacturer's protocols. In brief, 1 ml normal blood, drawn from healthy volunteer was incubated with 0-100 μg/ml of RR1 in a CO2 incubator at 37° C. for 24 hours. The treated blood samples were centrifuged at 2000×g at 4° C. and 225 μl of complement reagent ‘A’ was added to an equal volume of the sample supernatant and vortexed thoroughly. To this mixture, 50 μl of 10 N HCl was added, vortexed again and incubated at room temperature for 1 hour. […] The plate was incubated at 37° C. for 1 hour without shaking, added 50 μl of stop solution and absorbance was taken at 405 nm with a reference wavelength of 570 nm in a BIO-RAD Bench top plate reader.

[2] = test system: human monocyte cell line THP-1; assay: NO synthesis in monocyte cell line; type: cell-based
From the text: NO levels are also reported to play an important role in the modulation of Th cell differentiation and polarization. Yamasaki et al. (Yamasaki, A. et al. Yonago Acta Medica, 1998, 44:7-15) and Taylor-Robinson et al. (Taylor-Robinson, A. W. et al. Eur. J. Immunol., 1994, 24:980-984) reported an inhibitory role of NO on Th1 cytokines while Bauer et al. (Bauer, H. et al., Immunol, 1997, 90:205-211) reported the same for Th1 as well as Th2 cytokines by NO from activated T cells. […] The enzyme iNOS produced a high output of NO from macrophages upon stimulation. […] The absence of iNOS induction by RR1 supports the conclusion that there is an insignificant increase in the production of NO. […] IFN-α, IFN-γ and TNF-α are known up-regulators of NO synthesis (Shin, J. Y. et al. Immunopharmcol. Immunotoxicol., 2002, 24:469-482; Hirazumi, A. and Furusawa, E. Phytother Res., 1999, 13:380-387).

iNOS = iNOS induction immunoassay; type: cell-based, human; settings: cytoplasmic extract of cells treated with RR1
Protocol: Inducible Nitric Oxide Synthase (iNOS) induction and Nitric oxide (NO) synthesis. Higher and long lasting release of NO is caused by the enzyme iNOS upon stimulation with […]. The iNOS induction by RR1 stimulation was assayed by QUANTIKINE iNOS immunoassay kit (R&D systems, Minneapolis, Minn.) which employs a sandwich enzyme immunoassay technique. The iNOS was assayed from the cytoplasmic extract of the cells treated with different concentrations of RR1. The samples and standards were pipetted in to the wells of the 96-well plate and any iNOS present was bound to the immobilized antibody. After washing away the unbound substances, an enzyme linked monoclonal antibody specific for iNOS was added. After washing away the unbound antibody enzyme reagent, the color developing substrate solution was added, the color development was stopped by stop solution and the absorbance was read at 450 nm with a reference wave length of 570 nm in the Bio-Rad plate reader.

[3] = test system: I-κBα in RAW 264.7 macrophages; assay: I-κBα degradation, immunoblot; type: cell-based, mouse; settings: RR1 100 μg/ml, western blot
Protocol: The cells were treated with RR1 at intervals of 15, 30, and 60 minutes. Degradation of I-κBα levels in cytoplasmic lysates was determined by immunoblot analysis using antimouse I-κBα mAb. I-κBα degradation. The degradation of IκB-α is a prerequisite for the activation of NF-κB. To determine the effect of RR1 on cellular IκB-α levels and its degradation, immunoblot analysis was performed with cytosolic lysates from RR1-treated RAW 264.7 macrophages for different time periods (0, 15 minutes, 30 minutes, 1 hour). The lysates were separated by SDS-PAGE on 12% gels and transferred to nitrocellulose membranes using a TransBlot apparatus (BIO-RAD, Hercules, Calif.). The membranes were hybridized with IκB-α specific monoclonal antibodies (1:1000) by the Western blot hybridization protocol (Lebron, F. et al. J Biol Chem., 2003, 278:25001-25008) using antimouse IκB-α antibody (CELL SIGNALING TECHNOLOGY, Inc, Beverly, Mass.) using the color detection system (BIO-RAD, Hercules, Calif.).

[4] = test system: HEK293 cells transfected with TLR6; assay: TLR signaling, IL-8 ELISA; type: cell-based, human; settings: HEK/TLR6, RR1 0-100 μg/ml, 24 hours
Protocol: HEK293/TLR6 cells (1×10^6) were treated with RR1 (0, 10, 50, and 100 μg/ml) at 37° C. for 24 hours and secreted IL-8 in the medium was analyzed by ELISA protocol.
TLR signaling. To determine the involvement of TLR signaling, parental HEK293 as well as HEK293 cells transfected with human TLR2, TLR6, TLR2/6 or TLR4/CD14/MD2 genes (cloned into pDUO plasmid), were used. These cells (0.5×10^6/ml) were incubated with 0-100 μg/ml of RR1 for 24 hours. Since these cells produce very low level of TNF-α and detectable levels of IL-8 upon activation, IL-8 secreted into the medium was analyzed using ELISA procedure. Incidentally, the IL-8 synthesis is also under the control of the transcription factor NF-κB.

## (1,4)-α-D-glucan [RR1]
[1]
  levels of C3a des Arg of the alternative pathway: step-wise increase
[2]
  NO levels with RR1 treatment: did not induce any higher levels of NO
iNOS
  induction of iNOS: did not stimulate the induction of iNOS significantly
[3]
  time to complete removal of I-κBα expression: 60 min
[4]
  IL-8 production: copious induction of IL-8
